Earlier results in PubChem BioAssay AID1259409 (Chemical Carcinogenesis Research Information System (CCRIS), 2018).

Tested on: rodent chemically induced tumor inhibition, incidence and multiplicity
Test: CCRIS tumor inhibitor studies

CC1=C(/C=C/C(C)=C/C=C/C(C)=C/C(=O)Nc2ccc(O)cc2)C(C)(C)CCC1
tumour outcome (control, treated, inhibition, significance) (Carcinogen: N-METHYL-N-NITROSOUREA, 684-93-5, Dose [Inhibitor]: 2 MMOL/KG DIET DAILY STARTING 12 D AFTER CARCINOGEN TREATMENT THROUGH ABOUT 8 MO AFTER CARCINOGEN DOSE (STUDY DURATION:, Route [Inhibitor]: ORAL, Species: RAT, Strain/Sex: F344/MALE, Target Tissue: Type of Lesion: COLON: ADENOMA, Dose [Carcinogen]: 2.5 MG 1/WK FOR 2 WK, Promoter: NONE USED): 16/39 (41%), 11/30 (37%), 10%, not significant
tumour outcome (control, treated, inhibition, significance) (Carcinogen: N-METHYL-N-NITROSOUREA, 684-93-5, Dose [Inhibitor]: 587 MG/KG DIET FROM D 7-20 AFTER CARCINOGEN ADMINISTRATION THEN REDUCED TO 391 MG/KG DIET FOR REMAINDER OF STUDY (STUDY, Route [Inhibitor]: ORAL, Species: RAT, Strain/Sex: SPRAGUE-DAWLEY/FEMALE, Target Tissue: Type of Lesion: MAMMARY GLAND: ADENOCARCINOMA, Dose [Carcinogen]: 20 MG/KG BW ONCE, Promoter: NONE USED): 64%, 50%, 22%, not significant
tumour outcome (control, treated, inhibition, significance) (Carcinogen: N-METHYL-N-NITROSOUREA, 684-93-5, Dose [Inhibitor]: 587 MG/KG IN DIET FROM D 7-20 AFTER CARCINOGEN DOSE THEN REDUCED TO 391 MG/KG IN DIET FOR REMAINDER OF STUDY (STUDY DURA, Route [Inhibitor]: ORAL, Species: RAT, Strain/Sex: SPRAGUE-DAWLEY/FEMALE, Target Tissue: Type of Lesion: MAMMARY GLAND: ADENOCARCINOMA, Dose [Carcinogen]: 20 MG/KG BW ONCE, Promoter: NONE USED): 64%, 50%, 22%, not significant
tumour outcome (control, treated, inhibition, significance) (Carcinogen: N-METHYL-N-NITROSOUREA, 684-93-5, Dose [Inhibitor]: O.O3 MMOL 3/WK STARTING 12 D THROUGH ABOUT 8 MO AFTER FIRST CARCINOGEN DOSE (STUDY DURATION: APPROXIMATELY 8 MO), Route [Inhibitor]: INTRARECTAL, Species: RAT, Strain/Sex: F344/MALE, Target Tissue: Type of Lesion: COLON: ADENOCARCINOMA, Dose [Carcinogen]: 2.5 MG 1/WK FOR 2 WK, Promoter: NONE USED): 3/39 (8%), 6/39 (15%), -88%, not significant
tumour outcome (control, treated, inhibition, significance) (Carcinogen: N-METHYL-N-NITROSOUREA, 684-93-5, Dose [Inhibitor]: O.O3 MMOL 3/WK STARTING 12 D THROUGH ABOUT 8 MO AFTER FIRST CARCINOGEN DOSE (STUDY DURATION: APPROXIMATELY 8 MO), Route [Inhibitor]: INTRARECTAL, Species: RAT, Strain/Sex: F344/MALE, Target Tissue: Type of Lesion: COLON: ADENOMA, Dose [Carcinogen]: 2.5 MG 1/WK FOR 2 WK, Promoter: NONE USED): 11/39 (28%), 23/39 (59%), -111%, p<0.05
tumour outcome (control, treated, inhibition, significance) (Carcinogen: N-METHYL-N-NITROSOUREA, 684-93-5, Dose [Inhibitor]: O.O3 MMOL 3/WK STARTING 15 D PRIOR TO THROUGH ABOUT 8 MO AFTER FIRST CARCINOGEN DOSE (STUDY DURATION: APPROXIMATELY 8 MO, Route [Inhibitor]: INTRARECTAL, Species: RAT, Strain/Sex: F344/MALE, Target Tissue: Type of Lesion: COLON: ADENOCARCINOMA, Dose [Carcinogen]: 2.5 MG 1/WK FOR 2 WK, Promoter: NONE USED): 3/39 (8%), 5/39 (13%), -63%, not significant
tumour outcome (control, treated, inhibition, significance) (Carcinogen: N-METHYL-N-NITROSOUREA, 684-93-5, Dose [Inhibitor]: O.O3 MMOL 3/WK STARTING 15 D PRIOR TO THROUGH ABOUT 8 MO AFTER FIRST CARCINOGEN DOSE (STUDY DURATION: APPROXIMATELY 8 MO, Route [Inhibitor]: INTRARECTAL, Species: RAT, Strain/Sex: F344/MALE, Target Tissue: Type of Lesion: COLON: ADENOMA, Dose [Carcinogen]: 2.5 MG 1/WK FOR 2 WK, Promoter: NONE USED): 11/39 (28%), 14/39 (36%), -29%, not significant
tumour outcome (control, treated, inhibition, significance) (Carcinogen: N-METHYL-N-NITROSUREA, 684-93-5, Dose [Inhibitor]: 0, 782 MG/KG OF CASEIN BASED AIN-76A DIET FOR DURATION OF STUDY BEGINNING 7 D PRIOR TO CARCINOGEN DOSE (STUDY DURATION:, Route [Inhibitor]: ORAL, Species: RAT, Strain/Sex: F344/FEMALE, Target Tissue: Type of Lesion: MAMMARY GLAND: TUMOR, Dose [Carcinogen]: 45 MG/KG BW ONCE AT 50 D OF AGE, Promoter: NONE USED): 18/25 (72%), 21/25 (84%), -17%, not significant
tumour outcome (control, treated, inhibition, significance) (Carcinogen: N-NITROSOBIS(2-OXOPROPLYL)AMINE [60599-38-4], DL-ETHIONINE [67-21-0], L-METHIONINE [63-68-3], Carcinogen: N-NITROSOBIS(2-OXOPROPLYL)AMINE [60599-38-4], DL-ETHIONINE [67-21-0], L-METHIONINE [63-68-3], Dose [Inhibitor]: 0, 0.0015% IN DIET FOR 55 D BEGINNING ON DAY 50, 1 WK POST LAST CARCINOGEN DOSE (STUDY DURATION: 105 D), Route [Inhibitor]: ORAL, Species: HAMSTER, Target Tissue: Type of Lesion: LIVER: INTRAHEPATIC CHOLANGIOCARCINOMA, Dose [Carcinogen]: 50 MG/KG BOP ONCE ON DAY 0, THEN 20 MG/KG TWICE ON DAYS 18 AND 32, 500 MG/KG DL-ETHIONINE 1X/D FOR 4 D BEGINNING ON DAY, Dose [Carcinogen]: 50 MG/KG BOP ONCE ON DAY 0, THEN 20 MG/KG TWICE ON DAYS 18 AND 32, 500 MG/KG DL-ETHIONINE 1X/D FOR 4 D BEGINNING ON DAY, Promoter: CHOLINE-DEFICIENT DIET): 7/17 (41%), 8/16 (50%), -22%, not significant
tumour outcome (control, treated, inhibition, significance) (Carcinogen: N-NITROSOBIS(2-OXOPROPLYL)AMINE [60599-38-4], DL-ETHIONINE [67-21-0], L-METHIONINE [63-68-3], Carcinogen: N-NITROSOBIS(2-OXOPROPLYL)AMINE [60599-38-4], DL-ETHIONINE [67-21-0], L-METHIONINE [63-68-3], Dose [Inhibitor]: 0, 0.0015% IN DIET FOR 55 D BEGINNING ON DAY 50, 1 WK POST LAST CARCINOGEN DOSE (STUDY DURATION: 105 D), Route [Inhibitor]: ORAL, Species: HAMSTER, Target Tissue: Type of Lesion: PANCREATIC DUCT, CARCINOMA, Dose [Carcinogen]: 50 MG/KG BOP ONCE ON DAY 0, THEN 20 MG/KG TWICE ON DAYS 18 AND 32, 500 MG/KG DL-ETHIONINE 1X/D FOR 4 D BEGINNING ON DAY, Dose [Carcinogen]: 50 MG/KG BOP ONCE ON DAY 0, THEN 20 MG/KG TWICE ON DAYS 18 AND 32, 500 MG/KG DL-ETHIONINE 1X/D FOR 4 D BEGINNING ON DAY, Promoter: CHOLINE-DEFICIENT DIET): 17/17 (100%), 15/16 (94%), 6%, not significant
tumour outcome (control, treated, inhibition, significance) (Carcinogen: N-NITROSOBIS(2-OXOPROPLYL)AMINE [60599-38-4], DL-ETHIONINE [67-21-0], L-METHIONINE [63-68-3], Carcinogen: N-NITROSOBIS(2-OXOPROPLYL)AMINE [60599-38-4], DL-ETHIONINE [67-21-0], L-METHIONINE [63-68-3], Dose [Inhibitor]: 0, 0.004% IN DIET FOR 55 D BEGINNING ON DAY 50, 1 WK POST LAST CARCINOGEN DOSE (STUDY DURATION: 105 D), Route [Inhibitor]: ORAL, Species: HAMSTER, Target Tissue: Type of Lesion: LIVER: INTRAHEPATIC CHOLANGIOCARCINOMA, Dose [Carcinogen]: 50 MG/KG BOP ONCE ON DAY 0, THEN 20 MG/KG TWICE ON DAYS 18 AND 32, 500 MG/KG DL-ETHIONINE 1X/D FOR 4 D BEGINNING ON DAY, Dose [Carcinogen]: 50 MG/KG BOP ONCE ON DAY 0, THEN 20 MG/KG TWICE ON DAYS 18 AND 32, 500 MG/KG DL-ETHIONINE 1X/D FOR 4 D BEGINNING ON DAY, Promoter: CHOLINE-DEFICIENT DIET): 7/17 (41%), 13/19 (68%), -68%, not significant
tumour outcome (control, treated, inhibition, significance) (Carcinogen: N-NITROSOBIS(2-OXOPROPLYL)AMINE [60599-38-4], DL-ETHIONINE [67-21-0], L-METHIONINE [63-68-3], Carcinogen: N-NITROSOBIS(2-OXOPROPLYL)AMINE [60599-38-4], DL-ETHIONINE [67-21-0], L-METHIONINE [63-68-3], Dose [Inhibitor]: 0, 0.004% IN DIET FOR 55 D BEGINNING ON DAY 50, 1 WK POST LAST CARCINOGEN DOSE (STUDY DURATION: 105 D), Route [Inhibitor]: ORAL, Species: HAMSTER, Target Tissue: Type of Lesion: PANCREATIC DUCT, CARCINOMA, Dose [Carcinogen]: 50 MG/KG BOP ONCE ON DAY 0, THEN 20 MG/KG TWICE ON DAYS 18 AND 32, 500 MG/KG DL-ETHIONINE 1X/D FOR 4 D BEGINNING ON DAY, Dose [Carcinogen]: 50 MG/KG BOP ONCE ON DAY 0, THEN 20 MG/KG TWICE ON DAYS 18 AND 32, 500 MG/KG DL-ETHIONINE 1X/D FOR 4 D BEGINNING ON DAY, Promoter: CHOLINE-DEFICIENT DIET): 17/17 (100%), 19/19 (100%), 0%, not significant
tumour outcome (control, treated, inhibition, significance) (Carcinogen: N-NITROSOBIS(2-OXOPROPLYL)AMINE [60599-38-4], DL-ETHIONINE [67-21-0], L-METHIONINE [63-68-3], Carcinogen: N-NITROSOBIS(2-OXOPROPLYL)AMINE [60599-38-4], DL-ETHIONINE [67-21-0], L-METHIONINE [63-68-3], Dose [Inhibitor]: 0, 0.01% IN DIET FOR 55 D BEGINNING ON DAY 50, 1 WK POST LAST CARCINOGEN DOSE (STUDY DURATION: 105 D), Route [Inhibitor]: ORAL, Species: HAMSTER, Target Tissue: Type of Lesion: LIVER: INTRAHEPATIC CHOLANGIOCARCINOMA, Dose [Carcinogen]: 50 MG/KG BOP ONCE ON DAY 0, THEN 20 MG/KG TWICE ON DAYS 18 AND 32, 500 MG/KG DL-ETHIONINE 1X/D FOR 4 D BEGINNING ON DAY, Dose [Carcinogen]: 50 MG/KG BOP ONCE ON DAY 0, THEN 20 MG/KG TWICE ON DAYS 18 AND 32, 500 MG/KG DL-ETHIONINE 1X/D FOR 4 D BEGINNING ON DAY, Promoter: CHOLINE-DEFICIENT DIET): 7/17 (41%), 14/17 (82%), -100%, p<0.05
